Experimental data: US20100234310A1, “ESTROGENIC COMPOUNDS AND THEIR METHODS OF USE” (Bionovo, Inc., priority 2009, published 2010)

How the values were obtained:
breast cancer cells = assay: Activity in cancerous cells, in particular breast cancer cells, in vitro; assay type: cell-based
ER-β = target: T1, ER-β (Homo sapiens, UniProt Q92731); assay: ER-β specific assay: ER-β plasmid co-transfected with TNF-RE-tk-Luc or ERE-tk-Luc; assay type: cell-based
T1 construct: expressed in transfected cells
Procedure: Purified compounds were analyzed by LC-MS and NMR and data was compared to data acquired from authentic purchased standards.

T1 sequence (Q92731 whole entry, species assumed): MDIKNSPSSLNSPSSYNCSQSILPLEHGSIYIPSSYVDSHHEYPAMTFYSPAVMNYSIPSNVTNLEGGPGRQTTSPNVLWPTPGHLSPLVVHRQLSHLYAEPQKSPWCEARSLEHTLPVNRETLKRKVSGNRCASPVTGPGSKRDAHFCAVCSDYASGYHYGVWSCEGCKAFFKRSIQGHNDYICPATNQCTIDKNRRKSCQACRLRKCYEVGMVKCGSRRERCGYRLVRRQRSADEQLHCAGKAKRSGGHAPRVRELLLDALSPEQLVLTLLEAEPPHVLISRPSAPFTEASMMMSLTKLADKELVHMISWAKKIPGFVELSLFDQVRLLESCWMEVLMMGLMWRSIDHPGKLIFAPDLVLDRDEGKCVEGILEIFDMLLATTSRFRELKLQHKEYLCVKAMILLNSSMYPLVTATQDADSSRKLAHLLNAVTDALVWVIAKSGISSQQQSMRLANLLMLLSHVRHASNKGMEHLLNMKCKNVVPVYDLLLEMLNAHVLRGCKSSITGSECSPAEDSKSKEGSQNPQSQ

SMILES	estrogenic activity (ER-β-specific) (ER-β)	induction of apoptosis (breast cancer cells)	induction of cell death (breast cancer cells)	induction of mitochondrial superoxide (breast cancer cells)	generation of reactive oxygen species (breast cancer cells)	generation/induction of superoxide (breast cancer cells)
O=c1cc(-c2ccc(O)cc2)oc2cc(O)cc(O)c12 [Apigenin]		active	active	active		
O=C1CC(c2ccc(O)cc2)Oc2cc(O)cc(O)c21 (stereo not shown) [Narigenin]	estrogenic activity					
O=c1c(O)c(-c2ccc(O)c(O)c2)oc2cc(O)cc(O)c12 [Quercetin]	estrogenic activity					
C[C@@H]1O[C@@H](Oc2c(-c3ccc(O)c(O)c3)oc3cc(O)cc(O)c3c2=O)[C@H](O)[C@H](O)[C@H]1O [Quercetrin]	estrogenic activity					

Continued, in another order:

estrogenic activity (ER-β-specific) (ER-β)	SMILES	induction of apoptosis (breast cancer cells)	induction of cell death (breast cancer cells)	induction of mitochondrial superoxide (breast cancer cells)	generation of reactive oxygen species (breast cancer cells)	generation/induction of superoxide (breast cancer cells)
estrogenic activity	O=c1cc(-c2ccc(O)c(O)c2)oc2cc(O)cc(O)c12 [Luteolin]	active	active	active	active	active
estrogenic activity	O=c1c(O[C@@H]2O[C@H](CO)[C@@H](O)[C@H](O)[C@H]2O)c(-c2ccc(O)c(O)c2)oc2cc(O)cc(O)c12 [Quercetin-3-O-β-glucopyranoside]					
